Source: a melting point compilation (Tetko et al.)

Compound	melting point
N#Cc1ccc(Oc2ccc(C(F)(F)F)cc2N)cc1	106 to 108 °C
COC(=O)c1cccc2[nH]ccc12	70 °C
C=CCCC(=C)C	-129 °C
CCOc1cccc2cc(C(=O)O)c(=O)oc12	190 to 192 °C
CC(C)(O)C#Cc1ccc(C=NO)cc1	109 to 112 °C
O=C(O)CCc1c(Cl)cccc1Cl	95 to 97 °C
N#CC(=CNc1ccccc1)c1ccccc1	156 °C
Clc1cccc(C(Cl)(Cl)Cl)n1	63 °C
NC(=S)c1cccs1	108 °C
O=[N+]([O-])c1cc2nccnc2cc1[N+](=O)[O-]	188 to 191 °C
C=C(C)CCC=C(C)C	-70 °C
Cc1ccccc1Oc1cccnn1	78 °C
COc1ccc2c(c1)C(=O)C2	55 °C
CC(C)=NN=C(C)C	-12.5 °C
CCOP(=O)(N=C1SCCS1)OCC	41 °C
C=C1CC(=O)OC1=O	69 °C
CC(C(O)c1ccccc1)N(C)CC=Cc1ccccc1 (centres undefined)	75 °C
FC(F)C(F)(F)OCC(Cn1cncn1)c1ccc(Cl)cc1Cl (centres undefined)	6 °C
CC(CCC(N)=O)n1nc2ccccc2n1 (centres undefined)	102 °C
C#CCOc1c(Cl)cccc1Cl	43.5 °C
O=C=NCCCCCCN=C=O	-67 °C

Compound	melting point
C=C1C(C)C2C(Cc3ccccc3)NC(=O)C23OC(=O)C=CC(=O)CCCC(C)CC=CC3C1O (centres undefined)	193 to 195 °C
CC(=O)C1(O)CCC2(C)C(CC(=O)C3C4CCC(=O)C4(C)CCC32)C1 (centres undefined)	185 to 191 °C
c1ccc2c(P(c3cccc4ccccc34)c3cccc4ccccc34)cccc2c1	265 to 268 °C
COC(=O)c1coc(CCl)n1	74 to 76 °C
CC(N)CC(=O)O (centres undefined)	193 °C
O=[N+]([O-])c1cccc(F)c1CBr	52 °C
C=Cc1ccc(C(=O)OC)cc1	36 °C
N#Cc1c(N)sc2c1CCCC2	142 °C
O=C(O)C(Cl)Cl	13.5 °C
Cc1c(C(=O)Cl)cnn1-c1ccc(Cl)cc1	115 °C
CCCCCCCCCCCCCCCCOc1ccc(C(=O)O)cc1	132 °C
O=C1CCCCCN1Cc1ccccc1	56 to 57 °C
O=C(Nc1ccccc1)C(Cl)=NNc1ccccc1	159 to 161 °C
COc1ccc2[nH]cc(CCN)c2c1	122 °C
CCc1nn(CCCN2CCN(c3cccc(Cl)c3)CC2)c(=O)n1CCOc1ccccc1	83.5 °C
Cc1cc(-c2cc(C)n(C)n2)n[nH]1	154 to 156 °C
CCC(C)CC	-118 °C
Sc1c(Cl)c(Cl)c(Cl)c(Cl)c1Cl	232 °C
Cc1cc(C(F)(F)F)c(C#N)c(=S)[nH]1	200 °C
COc1ccc(-c2csc(/C(C#N)=N\Nc3ccc(Br)cc3)n2)cc1	196 °C
Nc1cc(F)c(Br)cc1F	75 °C

Compound	melting point
N#C/C(=N\Nc1cc(Cl)c(Cl)cc1Cl)c1nc(-c2ccc(Cl)cc2)cs1	176 °C
OC[C@H]1CC[C@H](CO)CC1	61 to 66 °C
CCCCCCCCc1ccc(NC(=O)c2ccc(C)cc2)cc1	113 °C
CN(C(=O)CCl)c1c2c(nn1C)CCCC2	84 to 86 °C
Nc1nc[nH]c(=O)n1	300 °C
NC(=O)c1ccc2c(c1)OCO2	167 to 169 °C
C=C(C)C(=O)OCCCCCCCCCCCC	-7 °C
O=C1CCCCCO1	-1 °C
CC(C)C(N)=NO	60 to 61 °C
COc1cc(C=C(C)[N+](=O)[O-])cc(OC)c1	87 to 89 °C
O=C1OC(Cl)c2ccccc21 (centres undefined)	60 °C
CC(C)=NNC(N)=O	182 °C
C[C@]12CCC(=O)C[C@@H]1CC[C@@H]1[C@@H]2CC[C@]2(C)C(=O)CC[C@@]12O	225 to 227 °C
O=Cc1ccccc1O	-3.5 °C
Oc1ccc(C(O)C2CCCCN2)cc1O (centres undefined)	204 °C
CCCC(=O)c1ccc(Cl)cc1	36 to 39 °C
FC(=C(F)C(F)(F)F)C(F)(F)F	-129 °C
CCCc1c(C(=O)O)cnn1-c1cc(Cl)cc(Cl)c1	169 to 171 °C
CC(C)C(C)CCC(C)C1CCC2C3CC=C4CC(O)CCC4(C)C3CCC12C (centres undefined)	158 °C

The remaining lines, values ahead:

melting point	Compound
183 °C	O=[N+]([O-])c1cccc(-c2nnc3n2CN(c2ccccc2[N+](=O)[O-])CS3)c1
120 to 121 °C	O=C1C(=Cc2ccco2)SC(=S)N1CN1CCCCC1
163 to 168 °C	O=c1ccnc[nH]1
48 °C	Fc1c(CBr)cccc1C(F)(F)F
121 to 122 °C	CC(=O)c1sc(-c2cccs2)nc1C
16.9 °C	CCCCCCCCCCCCCCCC(=O)OCCCC
160 to 165 °C	NC(=O)C[C@H](NC(=O)OCc1ccccc1)C(=O)O
61 to 65 °C	O=[N+]([O-])c1cccc(S(=O)(=O)OCC2CO2)c1 (centres undefined)
-39.1 °C	CCCCCCCCOC=O
196 °C	CCC(=O)OC1(C(=O)CCl)C(C)CC2C3CCC4=CC(=O)C=CC4(C)C3(F)C(O)CC21C (centres undefined)
280 °C	NC(=O)c1cccc(C(=O)O)c1
198 to 200 °C	CC(C)(C)c1cc([N+](=O)[O-])c2cc(C(C)(C)C)cc([N+](=O)[O-])c2c1
220 °C	Cc1ccc(-c2cc(N/N=C(/C(=O)c3cccs3)C(=O)C(F)(F)F)[nH]n2)cc1
> 300 °C	Cc1ccc(N2CSc3nnc(-c4cccc([N+](=O)[O-])c4)n3C2)cc1
129 °C	COc1cc(OC)nc(Oc2cccc(Oc3nc(OC)cc(OC)n3)c2C(=O)ON=C(c2ccccc2)c2ccccc2)n1
97 °C	N#Cc1ccc(OCc2ccccc2)cc1
96 °C	O=Cc1cccc2ncccc12
110 °C	c1ccc(-c2ccc3ncccc3c2)cc1
257 °C	NC1(C(=O)O)CC1
98 to 100 °C	OCc1ccccc1Cn1cncn1
119 to 120 °C	COC(=O)c1sc(C(F)(F)F)c(-c2ccccc2)c1N
93 °C	COc1ccccc1OCC(O)COC(N)=O (centres undefined)
-40 °C	CCCCCCOCCOCCO
132 °C	CC(=O)N1CCC(C(=O)Cl)CC1
135 °C	CC(=O)Nc1ccc(OCC(O)CNC(C)C)cc1 (centres undefined)

melting point	Compound
182 °C	COc1ccc(NS(=O)(=O)c2ccc(N)cc2)nn1
150 °C	N#CC(=CNc1ccc(O)cc1)c1ccccc1
56 to 58 °C	Clc1cc(Cl)c(I)c(Cl)c1
175 °C	N#Cc1nc[nH]c1C#N
238 to 240 °C	O=C(O)c1ccc(-c2ncccn2)cc1
78 to 81 °C	CNC(=Nc1cc(C)ccn1)SC
133 to 136 °C	N#Cc1cccc(N2CCCCC2)c1
197 to 200 °C	Cc1cc(Sc2nnc(N)s2)c2ccccc2n1
166 to 168 °C	NC(=S)Nc1cc(C(F)(F)F)cc(C(F)(F)F)c1
93.5 to 94 °C	Cc1nc2cc(C)c(C)cc2o1
109 °C	NS(=O)(=O)c1ccc(F)c(Cl)c1
63 °C	Nc1c(F)cc(Br)cc1Br
118 °C	ON=Cc1ccc(Br)cc1
76 to 77 °C	C#Cc1ccc(-c2cnco2)cc1
20 °C	OC1CCCC1C1CCCC1 (centres undefined)
30 °C	O=C=Nc1cc(Cl)ccc1Cl
72 °C	COc1ccc(S(=O)(=O)Cl)c(OC)c1
208 to 209 °C	COC(=O)c1cnc(SCC(=O)NC(=O)Nc2ccc(Cl)cc2)n1C
197 to 201 °C	COc1ccc2[nH]c(C(=O)O)cc2c1
131 °C	C#CCOc1cc(-n2nc(C(C)(C)C)oc2=O)c(Cl)cc1Cl
64.5 °C	CC(C)COC(=O)c1ccc(N)cc1
169 °C	CN(C(=O)C(C(F)(F)F)C(F)(F)F)C1CCCCC1
44 °C	CC(C)(Cc1ccc(F)cc1)N=Cc1ccccc1
223 to 224 °C	c1ccc(-c2nnc3n2CN(c2ccccn2)CS3)cc1
155 °C	Nc1nc(-c2ccc3ccccc3c2)cs1

melting point	Compound
250 to 253 °C	CC(=O)Nc1ccc(C2=NNC(=O)CC2)cc1
41 to 43 °C	Cc1onc(-c2ccccc2)c1C=O
76 to 78 °C	Cc1ccc(C(Br)C(=O)c2ccc(Cl)cc2)cc1 (centres undefined)
169 °C	O=C(O)Cc1c[nH]c2ccccc12
300 °C	Oc1c(-c2ccc3ccccc3c2O)ccc2ccccc12
142 to 144 °C	O=C(Cc1ccccc1)c1cc2c(cc1Br)OCCO2
27 °C	Nc1cccc(C(F)(F)F)c1Cl
207 °C	Clc1cc(Cl)c2c(c1)oc1cc(Cl)cc(Cl)c12
149 °C	O=C(O)c1ccc(F)cc1[N+](=O)[O-]
211 to 215 °C	Nc1ccc(C(=O)O)cc1O
119 °C	CC(C)(C)OC(=O)NC(CCC(N)=O)C(=O)O (centres undefined)
118 °C	CC(=O)Nc1ccc(C)cc1Br
145 to 148 °C	CC(=O)O[C@H]1[C@H](OC(C)=O)[C@@H](S(=O)(=O)c2ccccc2)OC[C@H]1OC(C)=O
17 °C	O=[N+]([O-])c1cc(F)cc(F)c1
40 °C	CCC(CC)(CBr)CBr
248 °C	CC(=O)N[C@@H](C)C(=O)N[C@@H](C)C(=O)N[C@@H](C)C(=O)O
95 °C	CN(C)CCn1cnc2c1c(=O)n(C)c(=O)n2C
94.5 °C	CCOC(=O)c1c(Cl)c(Cl)c(Cl)c(Cl)c1C(=O)O
220 to 221 °C	O=S(=O)(O)CC(O)CNC(CO)(CO)CO (centres undefined)
49 °C	CCCN(C(C)=O)c1ccccc1
90 to 93 °C	O=C(O)Cc1coc2ccccc12
132 °C	CC(=O)/C(=C/Nc1ccccc1)Cc1ccccc1
203 to 205 °C	O=C(O)c1scc2c1CCCC2
